pIC50: −log10 of the molar value.
Experiments:
[1] = target: T1, mitochondrial benzodiazepine receptor (MBR) (Rattus norvegicus, UniProt P16257); experiment: Binding assay of mitochondrial benzodiazepine receptor (MBR), [3H]4'-chlorodiazepam (Ro5-4864), rat kidney membrane-preparation; conditions: rat kidney membranes, [3H]4'-chlorodiazepam 0.5 nM, 0° C. for 150 minutes
T1 construct: from tissue; host or cells: kidney of male Wistar rats (crude membrane preparation)
Method: The binding assay of central-type benzodiazepine receptor (CBR) and the preparation of receptor membrane-preparation were carried out according to the partially modified method of Braestrup, C. et al. [see; Br. J. Psychiatry, 133, 249-260 (1978)] with a minor modification; the binding assay of mitochondrial benzodiazepine receptor (MBR) and the preparation of receptor membrane-preparation were carried out according to the method of Schoemaker, H [see; J. Pharmacol. Exp. Ther., 225, 61-69 (1983)] with a minor modification.
CBR and MBR membrane-preparations were prepared from forebrain (CBR) and kidney (MBR) of male Wistar strain rats according to the following procedure, respectively.
To the forebrain of rat, 20 volumes of ice-cold 0.32 M sucrose solution to wet-weight of the tissue (1:20, wet-weight/vol) was added and homogenized, and then the homogenate was centrifuged at 900×g for 10 minutes. The supernatant was centrifuged at 11,500×g for 20 minutes, a buffer I for the binding assay (50 mM Tris-hydrochloric acid buffer, pH 7.5) was added to the resultant precipitate, and the mixture was homogenized, and then it was centrifuged at 30,000×g for 10 minutes. The resulting precipitate was washed 3 times according to the same operation, suspended in the buffer I (1 g of wet-weight of tissue/10 ml) and used as a CBR membrane-preparation for the binding assay. The CBR membrane-preparation was stored at −80° C. until use, and on the day of the assay, it was thawed and suspended in the buffer for use. On the other hand, kidney of rat was homogenized in 20 volumes of ice-cold buffer II for the binding assay to wet-weight of the tissue (1:20, wet-weight/vol) (50 mM sodium phosphate-potassium phosphate buffer solution containing 100 mM sodium chloride, pH 7.4), and then filtrated through 4 layers of gauze, and the filtrate was centrifuged at 40,000×g for 20 minutes. The resulting precipitate was suspended in the buffer II (1 g of wet-weight of tissue/50 ml) and used as a MBR membrane-preparation for the binding assay.
As a labeled ligand and a non-labeled ligand, [^3H]flunitrazepam (final concentration: 1 nM) and diazepam (final concentration: 20 μM) were used respectively, for the CBR binding assay, and [^3H]4′-chlorodiazepam (Ro5-4864, chemical name: 7-chloro-1,3-dihydro-1-methyl-5-(4-chloro-phenyl)-2H-1,4-[…]) (final concentration: 0.5 nM) and diazepam (final concentration: 50 μM) were used respectively, for the MBR binding assay. The binding assay of CBR was carried out by incubating at 0° C. for 30 minutes, while that of MBR was at 0° C. for 150 minutes.
The receptor binding assay was carried out in the following procedure. The test compound which the concentration was known, a tritium labeled ligand, a receptor membrane-preparation and the buffer I or II for the binding assay were added to a 96-well microplate in the total volume was 0.2 ml, and when the receptor membrane-preparation was added, the reaction started. After the incubation, the labeled ligand binding to the receptor was filtrated through a filter plate (UNI FILTER-96GF/B, PerkinElmer, the U.S.) using a cell harvester (PerkinElmer, the U.S.) to stop the reaction. The filter was immediately washed 6 times with 0.3 ml of the ice-cold buffer [50 mM Tris-hydrochloric acid buffer (pH 7.7)]. After 30 μl of liquid scintillation cocktail (MICROSCINTI 20, PerkinElmer, the U.S.) was added to each well on the dried filter plate, the radioactivity was measured with a TopCount. The specific binding amount was obtained by subtracting the non-specific binding amount which was simultaneously measured in the presence of non-labeled ligand from the total binding amount. The concentration that the test compound could decrease the specific binding amount of the labeled ligand to 50% of the amount (IC50 value) was analyzed using nonlinear least-squares method.

## C[C@H]1CCCN(C(=O)[C@@H]2Cc3ccccc3N2c2nsc3ccccc23)C1 [Example 28]
[1]
  pIC50: 8.24
other
  melting point: 176 to 178 °C

## C[C@H]1CCCN(C(=O)C2Cc3cc(F)ccc3N2c2ccc(Cl)nn2)C1 (stereo partly shown) [Example 67]
[1]
  pIC50: 8.81
other
  melting point: 164 to 168 °C

## C[C@@H]1C[C@H](C)CN(C(=O)[C@@H]2Cc3ccccc3N2c2cnccn2)C1 [Example 61, (S)-2-(cis-3,5-dimethylpiperidin-1-yl)carbonyl-1-(2-pyrazinyl)indoline]
[1]
  pIC50: 8.85
other
  melting point: 162 to 164 °C

## C[C@H]1CCCN(C(=O)[C@@H]2Cc3ccccc3N2c2nc3ccccc3s2)C1 [Example 14]
[1]
  pIC50: 9.08
other
  melting point: 165 to 166 °C

## C[C@H]1CCCN(C(=O)[C@@H]2Cc3ccccc3N2c2cccnc2)C1 [Example 32]
[1]
  pIC50: 9.14
other
  melting point: 114 to 115 °C

## C[C@H]1CCCN(C(=O)[C@@H]2Cc3ccccc3N2c2nccc3ccccc23)C1 [Example 12]
[1]
  pIC50: 8.86
other
  melting point: 134 to 136 °C

## C[C@H]1CCCN(C(=O)[C@@H]2Cc3ccccc3N2c2cnc3ccccc3n2)C1 [Example 26]
[1]
  pIC50: 9.07
other
  melting point: 160 to 161 °C

## CCCn1nc(N2c3ccccc3C[C@H]2C(=O)N2CCC[C@H](C)C2)ccc1=O [Example 130]
[1]
  pIC50: 8.39
other
  melting point: 183 to 185 °C

## COc1ccc2c(c1)N(c1ccc(Cl)nn1)C(C(=O)N1CCC[C@H](C)C1)C2 (stereo partly shown) [Example 70]
[1]
  pIC50: 8.61
other
  melting point: 184 to 186 °C

## CC1CCCN(C(=O)C2Cc3ccccc3N2c2ncccn2)C1 (stereo not shown) [Example 6]
[1]
  pIC50: 8.53
other
  melting point: 156 to 158 °C

## C[C@H]1CCCN(C(=O)[C@@H]2Cc3cc(Br)ccc3N2c2cccnn2)C1 [Example 90]
[1]
  pIC50: 8.18
other
  melting point: 161 to 163 °C

## Cc1ccc(N2c3ccccc3CC2C(=O)N2C[C@H](C)C[C@H](C)C2)nc1 (relative stereo) [Example 11]
[1]
  pIC50: 8.74
other
  melting point: 137 to 139 °C

## C[C@@H]1CCCN(C(=O)[C@@H]2Cc3ccccc3N2c2ccc(=O)n(C)n2)C1 [Example 122]
[1]
  pIC50: 7.57
other
  melting point: 191 to 193 °C

## CC1CCCN(C(=O)C2Cc3cc(F)ccc3N2c2ccc(=O)n(C)n2)C1 (racemic) [Example 132]
[1]
  pIC50: 8.00
other
  melting point: 217 to 219 °C

## C[C@@H]1C[C@H](C)CN(C(=O)[C@@H]2Cc3ccccc3N2c2cnc3ccccc3n2)C1 [Example 27]
[1]
  pIC50: 8.78
other
  melting point: 156 to 157 °C

## O=C(C1Cc2ccccc2N1c1ncccn1)N1CCCC(CO)C1 (racemic) [Example 50]
[1]
  pIC50: 7.03
other
  melting point: 124 to 128 °C

## C[C@H]1CCCN(C(=O)[C@@H]2Cc3ccccc3N2c2cnccn2)C1 [Example 60, (S)-2-[(S)-3-methylpiperidin-1-yl]carbonyl-1-(2-pyrazinyl)indoline]
[1]
  pIC50: 8.81
other
  melting point: 174 to 175 °C

## COc1ccc(N2c3ccccc3C[C@H]2C(=O)N2CCC[C@H](C)C2)nn1 [Example 73, (S)-1-(6-Methoxypyridazin-3-yl)-2-[[(S)-3-methylpiperidin-1-yl]carbonyl]indoline]
[1]
  pIC50: 8.47
other
  melting point: 134 to 137 °C

## CCc1cnc(N2c3ccccc3CC2C(=O)N2C[C@H](C)C[C@H](C)C2)nc1 (relative stereo) [Example 8]
[1]
  pIC50: 8.69
other
  melting point: 147 to 149 °C

## C[C@H]1CCCN(C(=O)[C@@H]2Cc3ccccc3N2c2cnn(C)c(=O)c2)C1 [Example 83]
[1]
  pIC50: 8.03
other
  melting point: 150 to 152 °C

## COc1ccc2c(c1)CC(C(=O)N1CCC[C@H](C)C1)N2c1ccc(Cl)nn1 (stereo partly shown) [Example 69]
[1]
  pIC50: 8.35
other
  melting point: 136 to 139 °C

## C[C@H]1CCCN(C(=O)[C@@H]2Cc3ccccc3N2c2ccc(=O)n(CC(F)F)n2)C1 [Example 127]
[1]
  pIC50: 8.71
other
  melting point: 173 to 175 °C

## COc1cccc2c1CC(C(=O)N1CCCC(C)C1)N2c1cccnn1 (racemic) [Example 85]
[1]
  pIC50: 8.43
other
  melting point: 160 to 162 °C

## C[C@H]1CCCN(C(=O)[C@@H]2Cc3ccccc3N2c2ccccn2)C1 [Example 72]
[1]
  pIC50: 9.18
other
  melting point: 186 to 189 °C

## C[C@H]1CCCN(C(=O)[C@@H]2Cc3ccccc3N2c2ccc3nnc(Cl)n3n2)C1 [Example 79, (S)-1-(3-chloro-1,2,4-triazolo[4,3-b]pyridazin-6-yl)-2-[[(S)-3-methylpiperidin-1-yl]carbonyl]indoline]
[1]
  pIC50: 8.75
other
  melting point: 268 to 269 °C

## CC1CC(C)CN(C(=O)[C@@H]2Cc3ccccc3N2c2ncccn2)C1 (stereo partly shown) [Example 25]
[1]
  pIC50: 8.17
other
  melting point: 237 to 239 °C

## Cc1ccc(N2c3ccccc3C[C@H]2C(=O)N2C[C@H](C)C[C@H](C)C2)nn1 [Example 38]
[1]
  pIC50: 8.73
other
  melting point: 158 to 159 °C

## Cn1nc(N2c3ccccc3C[C@H]2C(=O)N2CCCCC2)ccc1=O [Example 107, (S)-1-(1-methyl-6-oxo-1,6-dihydropyridazin-3-yl)-2-(1-piperidinylcarbonyl)indoline]
[1]
  pIC50: 7.55
other
  melting point: 225 to 227 °C

## C[C@@H]1CCCN(C(=O)[C@@H]2Cc3ccccc3N2c2nc3ccccc3o2)C1 [Example 16]
[1]
  pIC50: 8.93
other
  melting point: 220 to 222 °C

## C[C@H]1CCCN(C(=O)[C@@H]2Cc3ccccc3N2c2nc3ccccc3o2)C1 [Example 17, (S)-1-(1,3-benzoxazol-2-yl)-2-[[(S)-3-methylpiperidin-1-yl]carbonyl]indoline]
[1]
  pIC50: 9.20
other
  melting point: 191 to 193 °C

## CC1CCCN(C(=O)[C@@H]2Cc3ccccc3N2c2cnccn2)C1 (stereo partly shown) [Example 59]
[1]
  pIC50: 7.89
other
  melting point: 177 to 179 °C

## C[C@H]1CCCN(C(=O)[C@@H]2Cc3cc(Br)ccc3N2c2ccc(=O)n(C)n2)C1 [Example 93]
[1]
  pIC50: 8.24
other
  melting point: 241 to 242 °C

## COc1cccc2c1CC(C(=O)N1CCC[C@H](C)C1)N2c1ccc(Cl)nn1 (stereo partly shown) [Example 68]
[1]
  pIC50: 8.78
other
  melting point: 223 to 226 °C

## CC(C)Cn1nc(N2c3ccccc3C[C@H]2C(=O)N2CCC[C@H](C)C2)ccc1=O [Example 75]
[1]
  pIC50: 8.56
other
  melting point: 215 to 216 °C

## C[C@H]1CCCN(C(=O)[C@@H]2Cc3cc(Cl)ccc3N2c2ccc(=O)n(C)n2)C1 [Example 94]
[1]
  pIC50: 7.78
other
  melting point: 243 to 244 °C

## O=C(C1Cc2ccccc2N1c1ncccn1)N1CCCC(C(F)(F)F)C1 (racemic) [Example 49]
[1]
  pIC50: 8.40
other
  melting point: 159 to 163 °C

## C[C@H]1CCCN(C(=O)[C@@H]2Cc3ccccc3N2c2ccc(=O)n(Cc3ccccc3)n2)C1 [Example 123, (S)-1-(1-benzyl-6-oxo-1,6-dihydropyridazin-3-yl)-2-[[(S)-3-methylpiperidin-1-yl]carbonyl]indoline]
[1]
  pIC50: 8.84
other
  melting point: 220 to 222 °C

## COc1cccc2c1CC(C(=O)N1CCCC(C)C1)N2c1ccc(=O)n(C)n1 (racemic) [Example 133]
[1]
  pIC50: 8.40
other
  melting point: 181 to 182 °C

## CC1CCCN(C(=O)C2Cc3cc(F)ccc3N2c2cccnn2)C1 (racemic) [Example 84]
[1]
  pIC50: 8.25
other
  melting point: 155 to 157 °C

## C[C@@H]1CCCN(C(=O)[C@@H]2Cc3ccccc3N2c2ncccn2)C1 [Example 22]
[1]
  pIC50: 7.71
other
  melting point: 151 to 153 °C

## C[C@@H]1C[C@H](C)CN(C(=O)C2Cc3ccccc3N2c2nc3ccccc3o2)C1 (relative stereo) [Example 5]
[1]
  pIC50: 8.64
other
  melting point: 199 to 201 °C

Source: patent US20080221114A1, “2-(Cyclic Aminocarbonyl) Indoline Derivative and Medicinal Composition Containing the Same” (priority 2005, published 2008)
